These results are taken from patent publication US6365572B1, “Low molecular weight peptide derivatives as inhibitors of the laminin/nidogen interaction” (Aventis Pharma Deutschland GmbH, priority 1999, dated 2002).

For the experiment, the target named is T1, laminin/nidogen interaction (laminin P1, recombinantly produced human nidogen) (Homo sapiens, UniProt P14543).
T1 construct: made in house; host or cells: HEK-293
T1 sequence (P14543 29-1247): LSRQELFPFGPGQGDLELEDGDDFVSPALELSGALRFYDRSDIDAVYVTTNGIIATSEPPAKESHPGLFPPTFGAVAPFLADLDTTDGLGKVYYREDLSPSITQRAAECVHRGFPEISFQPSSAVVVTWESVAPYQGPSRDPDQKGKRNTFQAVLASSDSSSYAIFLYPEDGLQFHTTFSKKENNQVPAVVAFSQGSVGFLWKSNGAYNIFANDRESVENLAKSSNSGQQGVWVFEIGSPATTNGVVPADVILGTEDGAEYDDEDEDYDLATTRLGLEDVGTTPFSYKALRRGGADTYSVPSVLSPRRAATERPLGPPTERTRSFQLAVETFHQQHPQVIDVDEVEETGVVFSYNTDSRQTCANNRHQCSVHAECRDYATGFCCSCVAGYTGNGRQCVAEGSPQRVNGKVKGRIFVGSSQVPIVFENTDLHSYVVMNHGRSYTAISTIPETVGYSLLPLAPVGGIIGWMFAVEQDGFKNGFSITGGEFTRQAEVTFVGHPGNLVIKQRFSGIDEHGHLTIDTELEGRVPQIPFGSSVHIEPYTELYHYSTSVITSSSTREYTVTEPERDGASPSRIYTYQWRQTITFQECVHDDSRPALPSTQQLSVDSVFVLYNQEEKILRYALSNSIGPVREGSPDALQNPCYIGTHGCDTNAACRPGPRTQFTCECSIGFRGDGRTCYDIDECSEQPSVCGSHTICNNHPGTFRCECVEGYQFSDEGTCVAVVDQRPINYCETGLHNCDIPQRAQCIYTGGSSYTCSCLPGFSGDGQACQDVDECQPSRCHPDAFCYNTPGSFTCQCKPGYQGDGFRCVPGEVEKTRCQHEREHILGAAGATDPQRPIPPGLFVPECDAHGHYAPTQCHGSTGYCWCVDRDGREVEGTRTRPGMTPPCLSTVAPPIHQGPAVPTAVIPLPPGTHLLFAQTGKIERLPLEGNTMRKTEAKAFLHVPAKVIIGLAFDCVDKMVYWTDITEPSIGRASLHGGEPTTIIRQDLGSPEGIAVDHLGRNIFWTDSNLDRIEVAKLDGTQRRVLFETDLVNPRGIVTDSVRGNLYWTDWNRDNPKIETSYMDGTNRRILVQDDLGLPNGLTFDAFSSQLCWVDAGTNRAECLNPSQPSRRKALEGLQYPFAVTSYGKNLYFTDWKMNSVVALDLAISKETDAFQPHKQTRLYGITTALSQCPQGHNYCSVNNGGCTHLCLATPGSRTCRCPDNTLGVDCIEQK
In words: HTS screening assay (time-resolved fluorescence), inhibition of laminin/nidogen binding. Particulars: read-out: IC50. The procedure:
5) The compound stocks were preincubated with nidogen (10 μl compound stock to 90 μl nidogen solution) and the assay was performed as described in the attached protocol, yielding a final screening concentration of 2.7 μM per compound. The isolation of laminin P1 from human placenta, human nidogen from transfected HEK-293 cells and mouse laminin γ1III 3-5 from HEK-293 cells is described in WO 98/31709. 3.1.1. HTS screening assay (highly sensitive assay variant): Time-Resolved Fluorescence Assay Coating of test tubes Microtiter plates (for example FluoroNunc®) were coated with 75 μl of a 0.1 μg/ml solution of laminin P1 (in 0.159 g of Na2CO3, 0.293 g of NaHCO3, 0.02 g of NaN3/liter, pH 9.2) at room temperature for 1 hour. The solution was then tipped off, and free binding sites were blocked by incubation with 0.5% BSA (in 7.9 g of NaCl, 1.2 g of Na2HPO4, 0.31 g of KCl, 0.23 g of NaH2PO4, 0.04% Tween 20/liter, pH 7.2) at room temperature for 0.5 hour. Completion of the blocking reaction was followed by decantation of the solution and washing once with 250 μl of washing buffer (PBS/0.04% Tween). Sequential inhibition In parallel with the coating, a preincubation of 85-100 μl of a 0.25 nM nidogen solution (recombinantly produced human nidogen) with inhibitor or standard was carried out in a separate reaction vessel (1 hour at room temperature in 7.9 g of NaCl, 1.2 g of Na2HPO4, 0.31 g of KCl, 0.23 g of NaH2PO4, 0.04% Tween 20/liter, 0.5% BSA, pH 7.2). 75 μl of the preincubation (nidogen+inhibitor or standard) were transferred into the coated wells of the microtiter plate and incubated at room temperature for 1 hour. This was followed by washing twice with PBS/0.04% Tween. Detection of the bound nidogen took place by incubation (at room temperature) for 1 hour with 75 μl of a specific antibody preparation obtained from yolks of eggs from a chicken immunized with human nidogen. The IgY fraction was used in a dilution of 1:500 in PBS/0.04% Tween. The complex of nidogen and specifically bound antibodies was, after washing twice with PBS/0.04% Tween, detected by adding anti-chicken IgY-biotin (75 μl of a 1:2500 dilution; Promega, Madison, Wis. 53711, 608-274-4330). An incubation time of 1 hour and washing twice with PBS/0.04% Tween were followed for this purpose by incubation with streptavidin-europium (Wallac; 1 hour at room temperature) and washing twice with PBS/0.04% Tween. It was finally possible, after adding 100 μl of enhancement solution (Wallac) and shaking for 5 minutes, to measure a fluorescence signal in a Victor multilabel counter using the europium protocol. The relation between the amount, of bound nidogen in the solutions with inhibitor and that of nidogen without added inhibitor was found.

[1] abbreviates: results table 1.3, synthesized compounds 1 to 43.
[2] abbreviates: hit structures recovered from the pentamer library screening.

Each structure is given as a SMILES string. Like-named read-outs stand apart in the source and are kept apart here. Non-standard residues stand in square brackets, D forms with d. Residues, ends and D or L forms follow the SMILES beside them. *: point of attachment. 1Nal = N[C@@H](Cc1cccc2ccccc12)C(=O)O; 2Nal = N[C@@H](Cc1ccc2ccccc2c1)C(=O)O; Bta = N[C@@H](Cc1csc2ccccc12)C(=O)O; NH(3-hydroxypropyl) = OCCCN*

Consider `CC(C)[C@H](NC(=O)[C@H](C)NC(=O)[C@H](CC(N)=O)NC(=O)C1[C@@H](c2ccc3ccccc3c2)CCN1C(=O)CCC(=O)O)C(N)=O` (stereo in doubt) [Compound 34, Succinyl-L-(3R)-(2-naphthyl)prolyl-L-asparaginyl-L-alanyl-L-valine-amide], for which the IC50 under setting [1] stood at 27 nM.
As to `CC[C@H](C)[C@H](NC(=O)[C@@H](N)CC(N)=O)C(=O)N[C@@H](CC(=O)O)C(=O)N1CCC[C@H]1C(=O)N[C@@H](CC(N)=O)C(=O)N[C@@H](C)C(=O)N[C@H](C(=O)NCC(=O)NCCCO)C(C)C` [Compound 1, L-Asparaginyl-L-isoleucyl-L-aspartyl-L-prolyl-L-asparaginyl-L-alanyl-L-valyl-glycine-3-hydroxypropylamide, reference compound] (H-NIDPNAVG-{NH(3-hydroxypropyl)}), the IC50 under setting [1] turned out to be 3900 nM.
Take `CC(C)[C@H](NC(=O)[C@H](C)NC(=O)[C@H](CC(N)=O)NC(=O)[C@@H]1CCCN1C(=O)[C@@H](N)CC(=O)O)C(=O)NCC(=O)NCCCO` [Compound 2, L-Aspartyl-L-prolyl-L-asparaginyl-L-alanyl-L-valyl-glycine-3-hydroxypropylamide, reference compound] (H-DPNAVG-{NH(3-hydroxypropyl)}): the half-inhibitory concentration (IC50) under setting [1] was 7700 nM.
On to `CC(C)[C@H](NC(=O)[C@H](CC(=O)O)NC(=O)[C@H](CC(N)=O)NC(=O)[C@H](Cc1ccc2ccccc2c1)NC(=O)[C@@H](N)CC(=O)O)C(=O)NCC(=O)NCCCO` [Compound 3, L-Aspartyl-L-3-(2-naphthyl)alanyl-L-asparaginyl-L-aspartyl-L-valyl-glycine-3-hydroxypropylamide] (H-D[2Nal]NDVG-{NH(3-hydroxypropyl)}), for which the half-inhibitory concentration (IC50) was 430 nM under setting [2] and 510 nM under setting [1].
On the same counts, the results for `CC(C)[C@H](NC(=O)[C@H](CO)NC(=O)[C@H](CC(N)=O)NC(=O)[C@H](Cc1ccc2ccccc2c1)NC(=O)[C@@H](N)CC(=O)O)C(=O)NCC(=O)NCCCO` [Compound 4, L-Aspartyl-L-3-(2-naphthyl)alanyl-L-asparaginyl-L-seryl-L-valyl-glycine-3-hydroxypropylamide] (H-D[2Nal]NSVG-{NH(3-hydroxypropyl)}) are 490 nM and 380 nM.
For `CC(C)[C@H](NC(=O)[C@H](C)NC(=O)[C@H](CC(N)=O)NC(=O)[C@H](Cc1ccc2ccccc2c1)NC(=O)[C@@H](N)CC(=O)O)C(=O)NCC(=O)NCCCO` [Compound 5, L-Aspartyl-L-3-(2-naphthyl)alanyl-L-asparaginyl-L-alanyl-L-valyl-glycine-3-hydroxypropylamide] (H-D[2Nal]NAVG-{NH(3-hydroxypropyl)}), in that order: 370 nM and 750 nM.
For `CC[C@H](C)[C@H](NC(=O)[C@H](CC(=O)O)NC(=O)[C@H](CC(N)=O)NC(=O)[C@H](Cc1ccc2ccccc2c1)NC(=O)[C@@H](N)CC(=O)O)C(=O)NCC(=O)NCCCO` [Compound 6] (H-D[2Nal]NDIG-{NH(3-hydroxypropyl)}), in that order: 640 nM and 1380 nM.
Take `CC[C@H](C)[C@H](NC(=O)[C@H](CO)NC(=O)[C@H](CC(N)=O)NC(=O)[C@H](Cc1ccc2ccccc2c1)NC(=O)[C@@H](N)CC(=O)O)C(=O)NCC(=O)NCCCO` [Compound 7, L-Aspartyl-L-3-(2-naphthyl)alanyl-L-asparaginyl-L-seryl-L-isoleucyl-glycine-3-hydroxypropylamide] (H-D[2Nal]NSIG-{NH(3-hydroxypropyl)}): the IC50 under setting [2] was determined as 810 nM and the concentration for half-maximal inhibition (IC50) under setting [1] stood at 600 nM.
For `CC[C@H](C)[C@H](NC(=O)[C@H](C)NC(=O)[C@H](CC(N)=O)NC(=O)[C@H](Cc1ccc2ccccc2c1)NC(=O)[C@@H](N)CC(=O)O)C(=O)NCC(=O)NCCCO` [Compound 8, L-Aspartyl-L-3-(2-naphthyl)alanyl-L-asparaginyl-L-alanyl-L-isoleucyl-glycine-3-hydroxypropylamide] (H-D[2Nal]NAIG-{NH(3-hydroxypropyl)}), in that order: 470 nM and 700 nM.
As to `CC(C)[C@H](NC(=O)[C@H](C)NC(=O)[C@H](CC(N)=O)NC(=O)[C@H](Cc1cccc2ccccc12)NC(=O)[C@@H](N)CC(=O)O)C(=O)NCC(=O)NCCCO` [Compound 9, L-Aspartyl-L-3-(1-naphthyl)alanyl-L-asparaginyl-L-alanyl-L-valyl-glycine-3-hydroxypropylamide] (H-D[1Nal]NAVG-{NH(3-hydroxypropyl)}), the concentration for half-maximal inhibition (IC50) under setting [1] was 8250 nM.
Same read-out and setting: the result for `CC(C)[C@H](NC(=O)[C@H](C)NC(=O)[C@H](CC(N)=O)NC(=O)[C@H](Cc1c[nH]c2ccccc12)NC(=O)[C@@H](N)CC(=O)O)C(=O)NCC(=O)NCCCO` [Compound 10, L-Aspartyl-L-tryptophanyl-L-asparaginyl-L-alanyl-L-valyl-glycine-3-hydroxypropylamide] (H-DWNAVG-{NH(3-hydroxypropyl)}) reads 8570 nM; that for `CC(C)[C@H](NC(=O)[C@H](C)NC(=O)[C@H](CC(N)=O)NC(=O)[C@H](Cc1ccccc1)NC(=O)[C@@H](N)CC(=O)O)C(=O)NCC(=O)NCCCO` [Compound 11, L-Aspartyl-L-phenylalanyl-L-asparaginyl-L-alanyl-L-valyl-glycine-3-hydroxypropylamide] (H-DFNAVG-{NH(3-hydroxypropyl)}), 3380 nM.
On the same count and under the same terms, the result for `CC(C)[C@H](NC(=O)[C@H](C)NC(=O)[C@H](CC(N)=O)NC(=O)[C@H](Cc1ccc(O)cc1)NC(=O)[C@@H](N)CC(=O)O)C(=O)NCC(=O)NCCCO` [Compound 12, L-Aspartyl-L-tyrosyl-L-asparaginyl-L-alanyl-L-valyl-glycine-3-hydroxypropylamide] (H-DYNAVG-{NH(3-hydroxypropyl)}) reads 3790 nM.
Still for that read-out and setting: the result for `CC(C)[C@H](NC(=O)[C@H](C)NC(=O)[C@H](CC(N)=O)NC(=O)[C@H](Cc1csc2ccccc12)NC(=O)[C@@H](N)CC(=O)O)C(=O)NCC(=O)NCCCO` [Compound 13, L-Aspartyl-L-3-(3-benzothienyl)alanyl-L-asparaginyl-L-alanyl-L-valyl-glycine-3-hydroxypropylamide] (H-D[Bta]NAVG-{NH(3-hydroxypropyl)}) reads 7030 nM.
